Several values for one entry are separate records, joined by “and”; a condition that tells them apart may be missing. Equal values may be shown once.
Details: Liquid, Transpiration method

Fc1ccccc1I [1,2-fluoroiodobenzene]
Details | vapor or sublimation pressure
282.8 K | 0.0397 kPa
285.7 K | 0.0483 kPa and 0.0493 kPa
288.7 K | 0.0638 kPa
289.5 K | 0.0686 kPa
292.5 K | 0.0843 kPa
296.4 K | 0.1111 kPa
298.4 K | 0.1269 kPa
301.4 K | 0.1633 kPa
303.4 K | 0.1819 kPa
306.4 K | 0.2238 kPa
308.4 K | 0.25 kPa
311.3 K | 0.2939 kPa
313.4 K | 0.3289 kPa
316.4 K | 0.4201 kPa
317.5 K | 0.4348 kPa
318.4 K | 0.4686 kPa
321.4 K | 0.5638 kPa
323.5 K | 0.6216 kPa
326.5 K | 0.7364 kPa
327.5 K | 0.7616 kPa
328.6 K | 0.8217 kPa

Fc1cccc(I)c1 [1,3-fluoroiodobenzene]
Details | vapor or sublimation pressure
275.2 K | 0.0326 kPa
280.4 K | 0.0474 kPa
283.4 K | 0.0571 kPa
283.8 K | 0.058 kPa
284.9 K | 0.0625 kPa
286.8 K | 0.0746 kPa
288.2 K | 0.082 kPa
288.7 K | 0.0861 kPa and 0.0802 kPa
290.7 K | 0.0986 kPa
292.6 K | 0.1122 kPa
293.2 K | 0.1154 kPa
293.6 K | 0.1137 kPa
296.7 K | 0.1436 kPa
297.6 K | 0.1513 kPa and 0.1481 kPa
300.6 K | 0.184 kPa
302.5 K | 0.2085 kPa
305.6 K | 0.256 kPa
307.5 K | 0.2849 kPa
307.6 K | 0.2932 kPa and 0.3026 kPa
310.6 K | 0.364 kPa and 0.3464 kPa
312.5 K | 0.4094 kPa and 0.3873 kPa
315.6 K | 0.4642 kPa
315.7 K | 0.4836 kPa
317.6 K | 0.516 kPa
317.7 K | 0.5427 kPa
319.6 K | 0.5968 kPa

Fc1ccc(I)cc1 [1,4-fluoroiodobenzene]
Details | vapor or sublimation pressure
276.5 K | 0.0329 kPa
279.7 K | 0.04219 kPa
283.9 K | 0.05918 kPa and 0.0586 kPa
286.5 K | 0.07144 kPa
289.4 K | 0.08532 kPa and 0.08615 kPa
293.3 K | 0.1163 kPa
298.1 K | 0.1638 kPa
303 K | 0.2198 kPa
308.1 K | 0.3015 kPa
312.9 K | 0.4121 kPa
317.9 K | 0.547 kPa

Fc1ccccc1Br [1-bromo-2-fluorobenzene]
Details | vapor or sublimation pressure [kPa]
278.5 K | 0.1247
279.4 K | 0.1385
280.6 K | 0.1422
282.3 K | 0.1684
282.5 K | 0.1604
283.4 K | 0.1716
284.5 K | 0.1843
285.5 K | 0.2081
288.7 K | 0.262
291.7 K | 0.3115
294.5 K | 0.3837
297.5 K | 0.4636
300.3 K | 0.5578
303.5 K | 0.6675
306.6 K | 0.8
309.5 K | 0.944
312.6 K | 1.141
315.4 K | 1.338
318.6 K | 1.61
321.4 K | 1.858
324.3 K | 2.174

Fc1cccc(Br)c1 [1-bromo-3-fluorobenzene]
Details | vapor or sublimation pressure [kPa]
280.8 K | 0.2278
283.4 K | 0.2912
283.7 K | 0.2875
284.7 K | 0.3109
286.6 K | 0.3559
287.7 K | 0.3711
288.7 K | 0.403
289.4 K | 0.4245
292.5 K | 0.5168
293.4 K | 0.5476
295.3 K | 0.6202
298.4 K | 0.7441
299.7 K | 0.8106
301.5 K | 0.8784
302.4 K | 0.9483
305.8 K | 1.125
308.5 K | 1.312
311.6 K | 1.541
314.6 K | 1.819
317.6 K | 2.138

Fc1ccc(Br)cc1 [1-bromo-4-fluorobenzene]
Details | vapor or sublimation pressure [kPa]
278.2 K | 0.1662
281.3 K | 0.2043
283.5 K | 0.2384
284.4 K | 0.2446
286.5 K | 0.285
287.3 K | 0.2956
289.4 K | 0.3532
290.2 K | 0.3668
292.4 K | 0.4087
295.4 K | 0.5144
296.1 K | 0.5283
298.3 K | 0.6028
300.1 K | 0.6822
301.4 K | 0.7138
304.4 K | 0.8461
307.6 K | 0.9874
310.5 K | 1.204
313.4 K | 1.41
316.4 K | 1.673

Fc1ccccc1Cl [1-chloro-2-fluorobenzene]
Details | vapor or sublimation pressure
277.5 K | 0.3411 kPa
280.6 K | 0.4191 kPa and 0.4312 kPa
283.5 K | 0.5098 kPa
283.6 K | 0.5041 kPa
286.4 K | 0.6241 kPa
286.6 K | 0.6176 kPa
289.5 K | 0.7705 kPa
289.6 K | 0.7749 kPa
292.4 K | 0.8974 kPa
295.7 K | 1.093 kPa
298.5 K | 1.268 kPa
301.3 K | 1.521 kPa
304.1 K | 1.795 kPa
307.4 K | 2.169 kPa
310.1 K | 2.497 kPa
313.6 K | 3.121 kPa
316.3 K | 3.551 kPa
319.2 K | 4.226 kPa

Fc1cccc(Cl)c1 [1-chloro-3-fluorobenzene]
Details | vapor or sublimation pressure [kPa]
275.8 K | 0.4412
280.1 K | 0.5829
283.1 K | 0.7061
286 K | 0.8315
288.9 K | 1.031
292 K | 1.237
295.1 K | 1.491
298.1 K | 1.767
301 K | 2.096
304.1 K | 2.469
307.3 K | 2.963
310.3 K | 3.568
313.3 K | 4.106
316.5 K | 4.927
319.5 K | 5.737

Fc1ccc(Cl)cc1 [1-chloro-4-fluorobenzene]
Details | vapor or sublimation pressure [kPa]
277.6 K | 0.6008
280.6 K | 0.7421
283.2 K | 0.8729
286.2 K | 1.057
289.3 K | 1.259
292.4 K | 1.527
295.7 K | 1.87
296.9 K | 1.982
299.8 K | 2.405
302.7 K | 2.858
305.7 K | 3.285
308.4 K | 3.855
311.6 K | 4.575
314.3 K | 5.275
317.6 K | 6.059
320.4 K | 7.146
323.5 K | 8.51
